A short description of series [1]: in vitro. To be noted: human, Caco-2 cells.
Series [2] can be described thus: in vitro. The settings on record: human.
Series [3] has as its system SARS-CoV-2. The series can be described thus: microbe, parasite or virus in culture. To be noted: Severe acute respiratory syndrome coronavirus 2, Caco-2, 48 h.
Series [4] relates to SARS-CoV-2. To be noted: Homo sapiens; Caco-2; 10 uM.
Series [5] concerns SARS-CoV-2. The settings on record: caco-2.
The test system of a further series is Caco-2. The settings on record: human, caco-2, 48 h.

Usually IC50 stands for the concentration that inhibits the measured activity by half. A high value points to lower potency. Consider `C/C(=N\NC(=S)N1CCC1)c1ccccn1`, for which the CC50 at 48 h in the series “in vitro [1]” was below 0.02 µM. Also, the selectivity ratio in the series “in vitro [2]” (Caco-2 cells) turned out to be 1. The compound also returned an IC50 in the series on SARS-CoV-2 [3] below 0.02 µM.

`C/C=C/C[C@@H](C)[C@@H](O)[C@H]1C(=O)N[C@@H](CC)C(=O)N(C)[C@H](C)C(=O)N(CC)[C@@H](C(C)C)C(=O)N[C@@H](C(C)C)C(=O)N(C)[C@@H](CC(C)C)C(=O)N[C@@H](C)C(=O)N[C@H](C)C(=O)N(C)[C@@H](CC(C)C)C(=O)N(C)[C@@H](CC(C)C)C(=O)N(C)[C@@H](C(C)C)C(=O)N1C` [ALISPORIVIR]: the CC50 at 48 h in “in vitro [1]” was above 20 µM. Further, in “in vitro [2]” (Caco-2 cells), the selectivity ratio was above 6. The same compound displayed an IC50 in the series on SARS-CoV-2 [3] of 3.1 µM.

The inhibition is the drop in the measured response relative to a control, in per cent. In the case of GADOTERIDOL, the inhibition in the series on SARS-CoV-2 [4] was 2.66%.

As for VITAMIN B12, the inhibition in the series on SARS-CoV-2 [4] is -8.31%.

`CC1=C(CCC(=O)O)c2cc3nc(cc4[nH]c(cc5[nH]c(cc1n2)c(C)c5C(C)O)c(C)c4C(C)O)C(C)=C3CCC(=O)O` (stereo unspecified) [HAEMAPORPHYRIN] registered a CC50 at 48 h in the series “in vitro [1]” of 160 µM.

`CCCCCCCCCCCCOCCOCCOCCOCCOCCOCCOCCOCCOCCO` returned a CC50 at 48 h in “in vitro [1]” of 10.3 µM. In addition, the IC50 in the series with SARS-CoV-2 [3] was 0.22 µM.

In the case of AUROTHIOGLUCOSE, the inhibition with SARS-CoV-2 [4] amounted to 2.42%.

Compound `Nc1nccc(-c2c(-c3ccc(F)cc3)ncn2C2CCCCC2)n1` registered a CC50 at 48 h in the series “in vitro [1]” of 8.24 µM. This compound also registered a half-maximal inhibitory concentration (IC50) in the series with SARS-CoV-2 [3] of 19.2 µM.

Turning to TOCOFERSOLAN, in the series with SARS-CoV-2 [4], the inhibition turned out to be 95.2%.

Compound `Nc1nc2c(ncn2[C@@H]2O[C@H](CO)[C@@H](O)[C@H]2O)c(=S)[nH]1` [THIOGUANOSINE] yielded a CC50 at 48 h in the series “in vitro [1]” of 0.63 µM. Moreover, the selectivity ratio in “in vitro [2]” (Caco-2 cells) came out at 1. Moreover, in the series on SARS-CoV-2 [3], inhibition was half-maximal at 0.78 µM (IC50).

In the case of CETRIMONIUM BROMIDE, the inhibition in the series on SARS-CoV-2 [4] amounted to 55.1%.

With `Cn1cc(-c2ccc3c(c2)CCN3C(=O)Cc2cccc(C(F)(F)F)c2)c2c(N)ncnc21`, in “in vitro [1]”, the CC50 at 48 h came to 70.4 µM. For the same compound, the selectivity ratio in the series “in vitro [2]” (Caco-2 cells) was above 100. The same compound returned a concentration for half-maximal inhibition (IC50) in the series on SARS-CoV-2 [3] of 0.25 µM.

With AURANOFIN, the inhibition with SARS-CoV-2 [4] is 12.8%.

Take `COC(=O)C[C@@](O)(CCC(C)(C)O)C(=O)O[C@@H]1C(OC)=C[C@]23CCCN2CCc2cc4c(cc2[C@@H]13)OCO4`: the CC50 at 48 h in “in vitro [1]” was found to be 0.07 µM. Half-maximal inhibition in the series with SARS-CoV-2 [3] (IC50) was put at 19 µM.

Turning to COLISTIMETHATE SODIUM, the inhibition with SARS-CoV-2 [4] is -7.44%.

In the series “in vitro [1]”, `Cc1cccc2c1CC[C@H](CN1CCC(c3c(Cl)cccc3Cl)CC1)C[C@@H]2O` had a CC50 at 48 h of 3.67 µM. For the same compound, the selectivity ratio in the series “in vitro [2]” (Caco-2 cells) stood at 5. In addition, the IC50 with SARS-CoV-2 [3] amounted to 0.77 µM.

In “in vitro [1]”, `CCS(=O)(=O)N(Cc1cccnc1)c1cccc(-c2ccc(C#N)cc2)c1` yielded a CC50 at 48 h of 13.4 µM. The selectivity ratio in the series “in vitro [2]” (Caco-2 cells) was 1. Besides, in the series with SARS-CoV-2 [3], the IC50 came out at 17.1 µM.

Consider `CCC(CC)COC(=O)[C@H](C)N[P@](=O)(OC[C@H]1O[C@@](C#N)(c2ccc3c(N)ncnn23)[C@H](O)[C@@H]1O)Oc1ccccc1`, for which the CC50 at 48 h in “in vitro [1]” was 2580 µM. Further, in the series “in vitro [2]” (caco-2), the selectivity ratio was 3400. Further, in the series on SARS-CoV-2 [3], the IC50 came out at 0.76 µM.

In “in vitro [1]”, `C=C(c1ccccc1OCc1cccc(Cl)c1)n1ccnc1` [CROCONAZOLE] returned a CC50 at 48 h of 33 µM. Also, in the series “in vitro [2]” (Caco-2 cells), the selectivity ratio amounted to 2. Besides, the IC50 in the series with SARS-CoV-2 [3] was found to be 18.9 µM.

In the series “in vitro [1]”, `COc1cc2ncc(-c3ccccc3)nc2cc1OC` yielded a CC50 at 48 h of 1.36 µM. Besides, in the series on SARS-CoV-2 [3], the IC50 came out at 0.2 µM.

As to PHENYLMERCURIC ACETATE, in the series on SARS-CoV-2 [4], the inhibition was found to be 9.11%.

The compound `CC(C)(C)c1ccc(/C=C/C(=O)Nc2ccc3c(c2)OCCO3)cc1` gave a CC50 at 48 h in “in vitro [1]” of 14.2 µM. Moreover, the selectivity ratio in the series “in vitro [2]” (Caco-2 cells) was found to be 1. In the series with SARS-CoV-2 [3], half-maximal inhibition (IC50) required 15 µM.

In the series “in vitro [1]”, `FC(F)(F)Oc1ccc2nc(-c3ccc(OCCOCCOc4ccc(-c5nc6ccc(OC(F)(F)F)cc6[nH]5)nc4)cn3)[nH]c2c1` registered a CC50 at 48 h of 6.58 µM. For the same compound, in the series “in vitro [2]” (Caco-2 cells), the selectivity ratio stood at 35. Inhibition in the series with SARS-CoV-2 [3] was half-maximal at 0.19 µM (IC50).

As for `N=C(Nc1ccc(I)cc1)NC1C2CC3CC(C2)CC1C3` (stereo unspecified), the CC50 at 48 h in “in vitro [1]” amounted to 11.5 µM. The selectivity ratio in the series “in vitro [2]” (Caco-2 cells) was 2. The IC50 with SARS-CoV-2 [3] is 5.96 µM.

Consider ESCIN, for which the inhibition in the series on SARS-CoV-2 [4] is -9.26%.

Compound `Cc1nn(C)c2nc(NNC(=O)Nc3cc(Cl)nc(Cl)c3)cc(C(C)C)c12` displayed a CC50 at 48 h in “in vitro [1]” of 16.4 µM. In addition, in “in vitro [2]” (Caco-2 cells), the selectivity ratio came out at 3. Besides, inhibition in the series on SARS-CoV-2 [3] was half-maximal at 5.97 µM (IC50).

On to ACRIFLAVINE HYDROCHLORIDE, for which, in the series on SARS-CoV-2 [4], the inhibition worked out at 69.4%.

For `Cc1cc(Nc2cc(N3CCN(C)CC3)nc(Sc3ccc(NC(=O)C4CC4)cc3)n2)n[nH]1`, the inhibition with SARS-CoV-2 [4] is -0.85%.

Compound THIMEROSAL gave a concentration for half-maximal inhibition (IC50) in the series on SARS-CoV-2 [5] of 1.69 µM. The compound further showed a CC50 in the series with Caco-2 of 13.5 µM.

As to NYSTATIN, the inhibition in the series on SARS-CoV-2 [4] was -4.11%.

Take CYANOCOBALAMIN: the inhibition in the series on SARS-CoV-2 [4] stood at 40.4%.

In the case of `CCCC[C@@]1(C2CCCC2)Cc2cc(OCCCC(=O)O)c(Cl)c(Cl)c2C1=O`, the CC50 at 48 h in “in vitro [1]” was 24.6 µM. For the same compound, the selectivity ratio in “in vitro [2]” (Caco-2 cells) was 2. Further, in the series on SARS-CoV-2 [3], the IC50 was determined as 12.8 µM.

In the case of `CC(=O)OC[C@]12CCC(C)=C[C@H]1O[C@@H]1[C@H](O)[C@@H](OC(C)=O)[C@@]2(C)[C@@]12CO2`, in the series on SARS-CoV-2 [4], the inhibition amounted to 35%.

Regarding `CCOC(=O)c1ncc2[nH]c3ccc(OCc4ccccc4)cc3c2c1COC`, in “in vitro [1]”, the CC50 at 48 h stood at 0.91 µM. The selectivity ratio in “in vitro [2]” (Caco-2 cells) is 1. For the same compound, the IC50 with SARS-CoV-2 [3] is 1.34 µM.

With SODIUM ORTHOVANADATE, the inhibition in the series on SARS-CoV-2 [4] is 1.6%.

For the compound `CCCCCCCCCCCCCCCCCC[S+](CCC)c1ccccc1C(=O)OCC` (stereo unspecified), the CC50 at 48 h in the series “in vitro [1]” was determined as 0.89 µM. The selectivity ratio in “in vitro [2]” (Caco-2 cells) turned out to be 1. In the series with SARS-CoV-2 [3], the half-inhibitory concentration (IC50) was 0.77 µM.

(Values after ChEMBL document CHEMBL4303101, “Identification of inhibitors of SARS-CoV-2 in-vitro cellular toxicity in human (Caco-2) cells using a large scale drug repurposing collection” (2020).)
